Assay results reported in patent US9708370B2, “Azapeptides as CD36 binding compounds” (VALORISATION-RECHERCHE, LIMITED PARTNERSHIP, priority 2007, dated 2017).
Like-named read-outs stand apart in the source and are kept apart here. Starred links: 1 amine or outer side, 2 acyl side, 3 side chain; linkers in the order of their positions; H or OH if unused. Non-standard residues stand in square brackets, D forms with d. Residues, ends and D or L forms follow the SMILES beside them. azaTyr = O=C(N(Cc1ccc(O)cc1)N[*:1])[*:2]; X3 = O=C(N(Cc1cccc2ccccc12)N[*:1])[*:2]; azaPhe = O=C(N(Cc1ccccc1)N[*:1])[*:2]; azaLeu = CC(C)CN(N[*:1])C(=O)[*:2]; azaGly = NNC(=O)O

How the values were obtained:
[1] = molecular target: CD36 (Rattus norvegicus (Rat), UniProt Q07969); assay: CD36 receptor covalent photolabelling binding assay, competition with [125I]Tyr-Bpa-Ala-hexarelin on rat cardiac membranes; conditions: for binding activity/affinity at CD36 in words: compared with parent peptide GHRP-6 or hexarelin
Procedure: The hearts from Sprague Dawley rats (300 g-325 g) from Charles River, used as a source of cardiac membranes, were prepared as follows: the heart was washed with ice-cold saline, and fatty and connective tissue was removed. The tissue was cut into small pieces with scissors and placed in a Sorvall centrifuge tube containing 5 ml/g of fresh tissue of Buffer A (10 mM NaHCO3, 5 mM NaN3, 10 μM Pefabloc, 0.1 μM Aprotinin, 1 μM Pepstatin A, 1 μM Leupeptin, pH 7.0). The suspension was homogenized with a Polytron at low speed, 3×15 sec. The homogenate was centrifuged at 8 700×g for 20 min and the supernatant was put on ice. The pellet was resuspended and homogenized with a Glass-teflon Potter by 5 strokes. The homogenate was centrifuged at 8 700×g for 10 min and this supernatant was combined with the first supernatant. The supernatant fluid was centrifuged at 35 000×g for 20 min, yielding a second pellet fraction that was suspended thoroughly in a glass homogenizer with a Teflon pestle in 20 ml/g of fresh tissue of Buffer B (20 mM Tris-maleate, 0.6M KCl, pH 6.8). The resulting suspension was centrifuged again at 35 000×g for 60 min. The third pellet fraction was resuspended thoroughly in a glass homogenizer with a Teflon pestle in 20 ml/g of fresh tissue of Buffer C (10 mM Tris/HCl buffer pH 7.4) followed with another centrifugation at 35 000×g for 60 min. The harvested precipitate was then suspended in a small volume (1-2 ml/g of fresh tissue) of 50 mM Tris/HCl buffer pH 7.4) containing 2 mM EGTA. The resulting membrane preparation was frozen at −80° C. Protein concentration was determined with bicinchoninic acid (BCA) method, using BSA as standard.
The iodination procedure was performed in the darkness. […] The reaction was started by adding 5 ul (3 nmol) of H2O2. The incubation was carried out at 22° C. for 5 min. The addition of H2O2 was repeated twice with 5 min incubation each time. The reaction was stopped with the addition of 1.4 ml of 0.1% TFA. The iodinated peptide was purified on a reverse-phase Vydac C18 column with a 60 min linear gradient (1 ml/min) from 20% to 50% acetonitrile (90%) in 0.1% TFA (10%).
Nonspecific binding was defined as binding not displaced by 50 μM corresponding peptide. All peptide containing solutions were diluted in Buffer B. Buffer A and B were degassed under vacuum, and used in capped tubes in order to minimize lipid peroxydation. Before the incubation period, all tubes were put under a low flow of nitrogen. All material was kept on ice and the binding assay was performed in darkness. After an incubation period of 60 min at 22° C. […] After centrifugation at 12 000×g for 15 minutes, the pellets were resuspended in 150 μl of sample buffer (62 mM Tris-HCl, pH 6.8, 2% SDS, 10% glycerol, 15% 2-mercapto-ethanol, and 0.05% bromophenol blue), and boiled for 5 min prior to being subjected to electrophoresis. Proteins (200 μg/100 μl) were separated on 7.5% SDS-PAGE (45 V overnight). The gels resulting from SDS/PAGE were fixed, colored in Coomassie Brilliant Blue R-250, dried, exposed to a storage phosphor intensifying screen (Amersham Biosciences), and analysed by using a Typhoon PhosphorImager (Amersham Biosciences) and ImageQuant 5.0 software to establish competition curves. Protein bands were quantified by densitometry. The covalent binding signal of 87 kDa was analyzed by densitometry using Typhoon Phospholmager™ (Typhoon, Amersham Biosciences) and ImageQuant 5.0® software to set competition curves.
Specific binding activities were defined as the ratio of the density of the protein band to that of a non-specific band. Results are expressed as the percentage of the density of the […] to that of the total binding band.

[2] = molecular target: human GHS-R1a (Homo sapiens (Human), UniProt Q92847); assay: GHS-R1a binding assay, competition with 125I-ghrelin on membranes of LLC-PK1 cells expressing human GHS-R1a; conditions: for IC50: Table 5, read-out: IC50 Binding GHS-R1a; for binding affinity for GHS-R1a receptor in words: compared with GHRP-6
Procedure: Rat ghrelin was radio iodinated with Na^125I using the lodo-Beads iodination reagent (Pierce #28665). Briefly, an lodo-bead was incubated with 2 mCi of Na^125I (Amersham) in 100 μL of 50 mM sodium phosphate buffer, pH 7.0 for 5 min at 22° C. The reaction was started by adding 20 nmol of the peptide (1 mM in 0.1 M acetic acid). The tube was incubated for 10 min at 22° C. The iodination was terminated by adding 1 mL of 0.1% TFA. The mono-iodinated peptide was purified by reverse-phase HPLC using a Vydac C18 ([…]) column (30 cm×0.39 cm) in combination with a binary elution system of (A) 0.1% TFA in H2O and (B) 0.1% TFA, 10% H2O, 90% acetonitrile. Fractions of 0.5 mL were collected and analyzed by its radioactive content.
Cells (1.4×10^6) were plated in 100 mm plates and transfected 24 h later with pCDNA3.1-hGHS-R1a (UMR cDNA Resource Center #GHSR0A0000) following the CaHPO4 precipitation method. Briefly, 40 μg of plasmid DNA was diluted in 500 μL of sterile H2O and added to an equal volume of a 4× CaCl2, pH 7.9 solution (2 mM Tris-HCl, 0.2 mM EDTA, 500 mM CaCl2). The mixture was then added slowly with air bubbles to 1 mL of 2× Hepes-buffered saline, pH 7.1 (50 mM Hepes, 280 mM NaCl, 1.5 mM Na2HPO4). After 30 min at room temperature, 1 mL was distributed evenly over the cells and let overnight. The medium was changed the next morning and the membrane preparation was made two days later.
Cells were washed twice with PBS and once with ice-cold homogenization buffer (50 mM Tris-HCl, pH 7.3, 5 mM MgCl2, 2.5 mM EDTA, 30 μg/ml bacitracin). Cells were scraped and harvested in 1.5 mL tubes. Cells were then lysed by temperature shock with two freeze/thaw cycles in liquid nitrogen. The tubes were centrifuged at 14000 g for 20 min. Pellets were resuspended in homogenization buffer and stored at −80° C. until used. Total protein concentrations were determined with the BCA protein assay kit (Pierce).
Competition experiments were performed by incubating 50 μg of LLC-PK1 membranes expressing human GHS-R1a with 15 fmol of ^125I-Ghrelin and increasing concentrations of unlabeled ghrelin or with increasing concentrations of azapeptides derivatives in 0.5 mL of binding buffer. Bound radiolabelled ligand was separated from free by filtration on Whatman GF/C filters pretreated with a 1% polyethylenimine solution. Filters were washed with 2×3 mL of washing buffer (50 mM Tris-HCl, pH 7.3, 10 mM MgCl2, 2.5 mM EDTA, 0.015% Triton X-100). Filters were counted in a LKB gamma counter. Curves were analyzed using Prism software (GraphPad Software Inc).

[3] = Table 6, read-out: IC50 Binding CD36
[4] = Table 3, rat cardiac membranes, [125I]Tyr-Bpa-Ala-hexarelin as radioligand, read-out: IC50, binding affinity of aza peptide derivatives towards CD36

CD36, sequence (Q07969 whole entry): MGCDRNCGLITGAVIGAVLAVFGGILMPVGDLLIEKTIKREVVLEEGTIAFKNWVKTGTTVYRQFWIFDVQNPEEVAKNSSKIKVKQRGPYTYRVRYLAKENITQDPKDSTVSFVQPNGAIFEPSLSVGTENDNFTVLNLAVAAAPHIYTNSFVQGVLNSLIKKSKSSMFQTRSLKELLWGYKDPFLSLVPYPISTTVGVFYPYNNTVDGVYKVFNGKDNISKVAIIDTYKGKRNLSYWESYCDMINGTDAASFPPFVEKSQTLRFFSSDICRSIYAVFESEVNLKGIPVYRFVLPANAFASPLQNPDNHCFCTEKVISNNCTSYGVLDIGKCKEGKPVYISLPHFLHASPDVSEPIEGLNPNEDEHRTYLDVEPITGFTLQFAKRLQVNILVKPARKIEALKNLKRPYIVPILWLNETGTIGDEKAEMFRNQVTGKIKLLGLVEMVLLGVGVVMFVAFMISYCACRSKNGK
human GHS-R1a, sequence (Q92847 whole entry): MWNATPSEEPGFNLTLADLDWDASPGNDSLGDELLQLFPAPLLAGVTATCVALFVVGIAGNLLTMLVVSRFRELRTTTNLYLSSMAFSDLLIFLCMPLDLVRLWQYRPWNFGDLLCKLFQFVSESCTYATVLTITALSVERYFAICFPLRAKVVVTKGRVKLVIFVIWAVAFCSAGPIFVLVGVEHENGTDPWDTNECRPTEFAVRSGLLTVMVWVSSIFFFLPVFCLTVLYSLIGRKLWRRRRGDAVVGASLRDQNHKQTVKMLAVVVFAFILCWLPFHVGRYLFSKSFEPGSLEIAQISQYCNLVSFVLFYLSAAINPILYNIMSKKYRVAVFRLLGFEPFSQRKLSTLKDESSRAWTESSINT

Row | SMILES | IC50 [1, 3] [µM] | IC50 [2] [µM] | binding activity/affinity at CD36 in words [1] | other results
1 | C[C@H](NC(=O)[C@@H](Cc1ccccc1)NC(=O)[C@H](Cc1c[nH]c2ccccc12)NC(=O)[C@H](C)NC(=O)N(Cc1ccccc1)NC(=O)[C@@H](N)Cc1cnc[nH]1)C(N)=O [CP-1A (i), His-azaPhe-Ala-Trp-D-Phe-Ala-NH2] (H-H[azaPhe]AW[dF]A-NH2) | > 10 | 51 |  | IC50 ([2]; listed as CP-1A(i)): > 10 µM
2 | C[C@H](NC(=O)[C@H](C)NC(=O)N(Cc1ccccc1)NC(=O)[C@@H](N)Cc1cnc[nH]1)C(=O)N[C@H](Cc1ccccc1)C(=O)N[C@@H](CCCCN)C(N)=O [CP-1A (iii), (D/L)His-azaPhe-Ala-Ala-D-Phe-Lys-NH2] (H-H[azaPhe]AA[dF]K-NH2) | 27.6 | > 10 |  | 
3 | C[C@H](N)C(=O)NN(Cc1ccccc1)C(=O)N[C@@H](C)C(=O)N[C@@H](Cc1c[nH]c2ccccc12)C(=O)N[C@H](Cc1ccccc1)C(=O)N[C@@H](CCCCN)C(N)=O [CP-1A (iv), Ala-azaPhe-Ala-Trp-D-Phe-Lys-NH2] (H-A[azaPhe]AW[dF]K-NH2) | 5.02 | > 10 | without major change | binding affinity for GHS-R1a receptor in words [2]: decreased drastically
4 | C[C@H](NC(=O)[C@@H](Cc1ccccc1)NC(=O)[C@H](Cc1c[nH]c2ccccc12)NC(=O)[C@H](C)NC(=O)N(Cc1ccc(O)cc1)NC(=O)[C@@H](N)Cc1cnc[nH]1)C(N)=O [CP-1B (i), His-AzaTyr-Ala-Trp-D-Phe-Ala-NH2] (H-H[azaTyr]AW[dF]A-NH2) | 72.2 | > 10 |  | 
5 | C[C@H](NC(=O)N(Cc1ccc(O)cc1)NC(=O)[C@@H](N)Cc1cnc[nH]1)C(=O)N[C@@H](Cc1c[nH]c2ccccc12)C(=O)N[C@H](C)C(=O)N[C@@H](CCCCN)C(N)=O [CP-1B (ii), His-azaTyr-Ala-Trp-D-Ala-Lys-NH2] (H-H[azaTyr]AW[dA]K-NH2) | > 10 | > 10 |  | 
6 | C[C@H](N)C(=O)NN(Cc1ccc(O)cc1)C(=O)N[C@@H](C)C(=O)N[C@@H](Cc1c[nH]c2ccccc12)C(=O)N[C@H](Cc1ccccc1)C(=O)N[C@@H](CCCCN)C(N)=O [CP-1B (iv), Ala-AzaTyr-Ala-Trp-D-Phe-Lys-NH2] (H-A[azaTyr]AW[dF]K-NH2) | 17.4 | > 10 |  | 
7 | C[C@H](N)C(=O)N[C@H](Cc1c[nH]c2ccccc12)C(=O)NNC(=O)N[C@@H](Cc1c[nH]c2ccccc12)C(=O)N[C@H](Cc1ccccc1)C(=O)N[C@@H](CCCCN)C(N)=O [CP-2A(v), Ala-D-Trp-azaGly-Trp-D-Phe-Lys-NH2] (H-A[dW][azaGly]W[dF]K-NH2) | 8.76 |  |  | 
8 | CC(C)CN(NC(=O)[C@@H](Cc1c[nH]c2ccccc12)NC(=O)[C@@H](N)Cc1cnc[nH]1)C(=O)N[C@@H](Cc1c[nH]c2ccccc12)C(=O)N[C@H](Cc1ccccc1)C(=O)N[C@@H](C)C(N)=O [CP-2B (i), His-D-Trp-azaLeu-Trp-D-Phe-Ala-NH2] (H-H[dW][azaLeu]W[dF]A-NH2) | 9.02 | 8.17 | retained significant activity similar to the parent peptide | 
9 | CC(C)CN(NC(=O)[C@@H](Cc1c[nH]c2ccccc12)NC(=O)[C@@H](N)Cc1cnc[nH]1)C(=O)N[C@@H](Cc1c[nH]c2ccccc12)C(=O)N[C@H](C)C(=O)N[C@@H](CCCCN)C(N)=O [CP-2B (ii), His-D-Trp-azaLeu-Trp-D-Ala-Lys-NH2] (H-H[dW][azaLeu]W[dA]K-NH2) | 4.94 | > 10 | retained significant activity similar to the parent peptide | binding activity/affinity at CD36 in words ([1]; listed as CP-2B(ii)): without major change; binding affinity for GHS-R1a receptor in words [2]: decreased drastically
10 | CC(C)CN(NC(=O)[C@@H](Cc1c[nH]c2ccccc12)NC(=O)[C@@H](N)Cc1cnc[nH]1)C(=O)N[C@@H](C)C(=O)N[C@H](Cc1ccccc1)C(=O)N[C@@H](CCCCN)C(N)=O [CP-2B (iii), His-D-Trp-azaLeu-Ala-D-Phe-Lys-NH2] (H-H[dW][azaLeu]A[dF]K-NH2) | 9.66 | > 10 | retained significant activity similar to the parent peptide | 
11 | CC(C)CN(NC(=O)[C@@H](Cc1c[nH]c2ccccc12)NC(=O)[C@H](C)N)C(=O)N[C@@H](Cc1c[nH]c2ccccc12)C(=O)N[C@H](Cc1ccccc1)C(=O)N[C@@H](CCCCN)C(N)=O [CP-2B (v), Ala-D-Trp-azaLeu-Trp-D-Phe-Lys-NH2] (H-A[dW][azaLeu]W[dF]K-NH2) | 3.68 |  | retained significant activity similar to the parent peptide | binding activity/affinity at CD36 in words ([1]; listed as CP-2B(v)): without major change; binding affinity for GHS-R1a receptor in words [2]: decreased drastically
12 | NCCCC[C@H](NC(=O)[C@@H](Cc1ccccc1)NC(=O)[C@H](Cc1c[nH]c2ccccc12)NC(=O)NNC(=O)[C@@H](Cc1c[nH]c2ccccc12)NC(=O)[C@@H](N)Cc1cnc[nH]1)C(N)=O [DBG188p, His-D-Trp-azaGly-Trp-D-Phe-Lys-NH2] (H-H[dW][azaGly]W[dF]K-NH2) |  |  | retained significant activity similar to the parent peptide | IC50 [1, 4]: 9.61 µM
13 | C[C@H](NC(=O)N(Cc1cccc2ccccc12)NC(=O)[C@@H](N)Cc1cnc[nH]1)C(=O)N[C@@H](Cc1c[nH]c2ccccc12)C(=O)N[C@H](Cc1ccccc1)C(=O)N[C@@H](CCCCN)C(N)=O [DBG253-10, His-azaNal-1-Ala-Trp-D-Phe-Lys-NH2] (H-H[X3]AW[dF]K-NH2) |  |  |  | IC50 [1, 4]: 1930 µM
